Measurements published in publication PMC11497106, “GJB2 Promotes HCC Progression by Activating Glycolysis Through Cytoplasmic Translocation and Generating a Suppressive Tumor Microenvironment Based on Single Cell RNA Sequencing” (Advanced Science, 2024).

Target: T1, GJB2 (Gap junction protein beta-2; Connexin 26, Cx26); GFP-GJB2 (Homo sapiens, UniProt P29033)
T1 construct: 7QEQ is printed as human GJB2 for docking only
Assay: microscale thermophoresis (Monolith NT.[…]), GFP-GJB2 in HEK293T lysate
Assay type: binding

Structure (SMILES): O=C(/C=C/c1ccc(O)c2c1[C@H](C(=O)O[C@H](Cc1ccc(O)c(O)c1)C(=O)O)[C@@H](c1ccc(O)c(O)c1)O2)O[C@H](Cc1ccc(O)c(O)c1)C(=O)O [Salvianolic acid B]
- Kd: 8.52 µM
